Assay results from patent US20240131112A1, “USE OF METHANOBACTIN FOR TREATMENT OF IRON-RELATED DISEASES” (Helmholtz Zentrum Muenchen - Deutsches Forschungszentrum …, priority 2021, published 2024).

Assays:
[1] = test system: livers from LPP Atp7b^−/− rats; test: Liver perfusion experiments, biliary iron excretion; parameters: species or system rat; conditions: liver perfusion one hour at 37° C., 35 μmol methanobactin, ICP-OES
Experimental: Cannulated livers from LPP Atp7b^−/− rats were perfused for one hour at 37° C. with Krebs-Ringer bicarbonate solution, gassed with 95% O2 and 5% CO2, and MB-SB2 or MB-OB3b (35 μmol). During perfusion total bile was collected in 10-minute intervals. Biliary iron concentrations were determined by inductively coupled plasma optical emission spectrometry (ICP-OES) as described (Lichtmannegger et al. J Clin Invest, 2016, 126, 2721-2735).

[2] = test system: Huh7 cells (human hepatoma cell line); test: Cellular iron concentration in iron-preloaded Huh7 cells; type: cell-based; conditions: Huh7 preloaded 24 hours with 50 μM FAC, then 0.5 mM test substance for 24 hours, N=4
Experimental: FIG. 5: Control Huh7 cells (human hepatoma cell line) were preloaded for 24 hours with 50 μM FAC. The cells were then treated with 0.5 mM MB-SB2, 0.5 mM MB-OB3b and 0.5 mM DFO for 24 hours. […] Statistical analysis was done by One-way ANOVA (N=4).

[3] = test system: LPP Atp7b^−/− rats; test: Fecal iron excretion after intraperitoneal injection; type: in vivo, rat; conditions: i.p. twice a day for four days, 110 mg/kg bw MB-SB2 or 150 mg/kg bw MB-OB3b, ICP-OES
Experimental: LPP Atp7b^−/− rats were injected intraperitoneally (i.p.) twice a day for four consecutive days with either 110 mg/kg bw MB-SB2 or 150 mg/kg bw MB-OB3b. Rats were housed individually in metabolic cages for 4 days. Feces of each rat was collected in 24-hour periods at 24, 48, 72 and 96 hours after treatment start. Feces was separated from chow residues, dried, homogenized by grinding or milling and digested with concentrated HNO3 and iron content determined with inductively coupled plasma optical emission spectrometry (ICP-OES).

CC(NC(=O)C(C)NC(=S)C1N=C(C(NC(=O)C(CO)NC(=O)C(C)NC(=S)C2N=C(C(=O)CCCNC(=N)N)NC2=O)C(C)OS(=O)(=O)O)OC1=O)C(=O)O (stereo not drawn) [MB-SB2]
Biliary iron excretion [1]: brings iron to the bile
Cellular iron concentration [2]: significantly reduces cellular iron concentration in iron-preloaded Huh7 cells to the untreated level
Fecal iron excretion [3]: excrete iron in feces
